# The supplement of paper PMC6045584
# Key:
# Assay in all cases: area under dose-response curve of surviving fraction (unscaled, Aref=0) (surviving fraction x log10(nM)); higher = more resistant
# Conditions in all cases: exposure time: 5 days; dose range 0.5-1000 nM
# CABOZANTINIB = compound: COc1cc2nccc(Oc3ccc(NC(=O)C4(C(=O)Nc5ccc(F)cc5)CC4)cc3)c2cc1OC [CABOZANTINIB]
# Method in brief: (§1)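 Three screens per tumour cell line were run in 384-well plates at eight inhibitor concentrations from 0.5 to 1000 nM over five days. Surviving fractions, from CellTiter-Glo luminescence normalised to DMSO-only wells, were fitted with 3-parameter logistic curves in the drc R package. The reported area under the curve is the unscaled activity area. It spans log10 dose, and Aref is 0.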
# [1] = compound: C[C@@H]1CN(CC(=O)Nc2ccc3c(c2)Cc2cccc(-c4cc(=O)cc(N5CCOCC5)o4)c2S3)C[C@H](C)O1
# Method in brief: as §1
# [2] = compound: C[C@H](CN(C)C)Oc1nc(Nc2cc3cccc(Cl)c3cn2)cnc1C#N
# Method in brief: as §1
# BLEOMYCIN = compound: Cc1c(N)nc([C@H](CC(N)=O)NC[C@H](N)C(N)=O)nc1C(=O)N[C@H](C(=O)N[C@H](C)[C@@H](O)[C@H](C)C(=O)N[C@H](C(=O)NCCc1nc(-c2nc(C(=O)NCCC[S+](C)C)cs2)cs1)[C@@H](C)O)[C@@H](OC1OC(CO)C(O)C(O)C1OC1OC(CO)C(O)C(OC(N)=O)C1O)c1cnc[nH]1 [BLEOMYCIN]
# Method in brief: as §1
# BEZ-235 = compound: Cn1c(=O)n(-c2ccc(C(C)(C)C#N)cc2)c2c3cc(-c4cnc5ccccc5c4)ccc3ncc21 [BEZ-235]
# Method in brief: as §1
# VORINOSTAT = compound: O=C(CCCCCCC(=O)Nc1ccccc1)NO [VORINOSTAT]
# Method in brief: as §1
# IMATINIB = compound: Cc1ccc(NC(=O)c2ccc(CN3CCN(C)CC3)cc2)cc1Nc1nccc(-c2cccnc2)n1 [IMATINIB]
# Method in brief: as §1
Test System,area under dose-response curve (CABOZANTINIB),area under dose-response curve [1],area under dose-response curve [2],area under dose-response curve (BLEOMYCIN),area under dose-response curve (BEZ-235),area under dose-response curve (VORINOSTAT),area under dose-response curve (IMATINIB)
HCC38 BREAST,4.07,2.58,2.59,2.44,2.59,4,–
HMLE3 BREAST,3.06,3.21,–,3,2.13,–,3.75
G292 BONE,3.03,3.2,3.2,2.07,2.18,3.05,3.31
HS578T BREAST,3.18,2.86,2.54,2.21,2.13,2.86,3.7
HMT3552 BREAST,–,–,2.82,–,–,–,3.57
HCC70 BREAST,3.5,3.65,3.06,2.77,2.57,3.13,3.79
